In patent US20240383953A1, “NOVEL NAN[…] NANOG PRION-LIKE REPEATS” (BAYLOR COLLEGE OF MEDICINE, priority 2021, published 2024):
Like-named read-outs stand apart in the source and are kept apart here.

Experiments:
[1] = test system: GATA6-AF488 and GATA6-AF647; assay: FCCS DNA bridging by peptides; format: binding
Experimental: (§1) Basic residues, 3 Arg and 2 Lys, were incorporated for nucleic acid recognition. […] Similar results were obtained from two independent experiments. FIG. 8C (left panels) show photon bursts distribution of dsDNAs alone (GATA6-AF488 and GATA6-AF647; top) or with 7.5 μM (0.03 mg/mL) 1-4wRK peptide (bottom). Middle panels of FIG. 8C show FCCS curves for corresponding photon fluctuations shown in the left panels. […] Similar results were obtained from three independent experiments. […] Similar results were obtained from three independent experiments. […] Error bars were calculated from three independent measurements. […] Similar results were obtained from two independent experiments.
ThT binding to amyloid β-sheet emits maximally at ˜490 nm. Similar results were obtained from 2 independent experiments. […]
Applicant also tested the minipeptides' ability to bring together independent DNA molecules in solution. Using Fluorescence Cross-Correlation Spectroscopy (FCCS), Applicant observed an absence of cross-correlation between differentially fluorescently labeled DNAs (GATA6-AF488 and GATA6-AF647) without the peptide. […]
The significant 1-3wRK DNA-bridging competency was further confirmed by FCCS titration data and burst analysis, where Applicant observed cross-correlation even at ˜30 nM 1-3wRRK. […] Applicant demarcated the LLPS regimes using turbidity assay (UV absorbance at 350 nm; FIG. 8J). […]

[2] = target: dsDNA GATA6-AF488/GATA6-AF647; assay: fEMSA with dsDNA; format: binding
Experimental: as §1
(§2) ThT binding to amyloid β-sheet emits maximally at ˜490 nm. Similar results were obtained from 2 independent experiments. […] Similar results were obtained from 2 independent experiments.
(§3) Applicant observed nucleic acid interactions by fluorescence electrophoretic mobility shift assays (fEMSA). […] Moreover, the 1-4wRK peptide was also potent in recognizing single stranded DNA (ssDNA (TG)6) and RNA (ssRNA (UUAGGG)4-AF488/AF594).
(§4) By EMSA, almost all DNAs were bound at […] or 0.03 mg/mL 1-3wRRK. […] This was further corroborated by fluorescence polarization measurements.

GATA6 dsDNA = assay: Fluorescence polarization binding measurements; conditions: Hill binding equation, mean±SD
Source text: as §2
Since 1-3wRRK became soluble and much less aggregation-prone on its own, Applicant determined if the WR repeat (steric zipper region) was affected by changes in physical properties and still contributed towards recognizing DNA. Applicant compared its DNA binding capability to TAT and 1-4wRK by EMSA and fluorescence polarization measurements (FIGS. 9G-9H). Applicant observed that 1-3wRRK binds DNA more effectively than 1-4wRK, mostly likely due to the extra basic residues (FIGS. 8B, 9G, and 9H).
as §4

[3] = test system: ssDNA (TG)6 and ssRNA (UUAGGG)4-AF488/AF594; assay: fEMSA with single stranded nucleic acids; format: binding; conditions: immobilized in the gel wells
Experimental: as §1, §3

[4] = test system: fluorescent proteins h6GeGFP and h6GmCherry; assay: Co-partitioning with fluorescent proteins; conditions: h6GeGFP and h6GmCherry 5 μM
Experimental: as §1
Applicant used burst analysis to quantify sizes of the oligomeric species. The average fluctuations were assumed to represent monomeric species, and any degree of deviations from average were characterized as the oligomeric states. Applicant observed numerous heterogeneous oligomeric states that increased in molecular sizes with increasing peptide concentration (FIGS. 8D-8E). Because NANOG is also known as a ‘molecular hub’ protein capable of interactions with many proteins with its WR domain, Applicant tested whether the WR peptide mimetics could non-specifically recruit random proteins (e.g., fluorescent proteins h6GeGFP and h6GmCherry for convenient visualization). […]

DNA = assay: LLPS turbidity assay (UV absorbance at 350 nm); format: physicochemical
Experimental: as §2
The significant 1-3wRK DNA-bridging competency was further confirmed by FCCS titration data and burst analysis, where Applicant observed cross-correlation even at ˜30 nM 1-3wRRK. Applicant next investigated whether the peptides' ability to form nano-assemblies also correlated with their capacity to drive mesoscale condensates. Applicant demarcated the LLPS regimes using turbidity assay (UV absorbance at 350 nm; FIG. 8J). The LLPS data (presented in mg/mL concentration unit in FIG. 8J) reflected the behaviors observed at nanoscale level.

[5] = test system: Gata6-AF488 and Gata6-AF647 DNA; assay: Intermolecular diffusion smFRET DNA bridging; format: binding; conditions: 250 nM NANOG WT
Experimental: (§5) FIGS. 6A-6G provide data related to intermolecular DNA bridging through NANOG assemblies. […] The peak at EFRET ˜0 corresponds to AF488-conjugated unbound/bound DNA. FIGS. 6E1-4 show representative cross-correlation FCCS curves of Gata6-AF488 and Gata6-AF647 with various concentrations of WT ((i) 0 nM; (ii) 63 nM; (iii) 875 nM) and W8A mutant ((iv) 875 nM). […] Nad and diffusion coefficients were derived and calculated from FCCS fits (Methods). […] Through prion-like assembly, NANOG can initiate intragenomic (promoter-enhancer) contacts, as well as connecting distant intergenomic loci to form superenhancer clusters with other TFs and coactivators (green/yellow).
To test the DNA bridging hypothesis, Applicant performed single molecule FRET (smFRET) diffusion experiments. Intermolecular diffusion smFRET is challenging due to low chance encounters at dilute pM concentrations. Gata6 DNAs were independently labeled with AF488 or AF647. […] However, in the presence of 250 nM NANOG WT.

[6] = test system: Gata6-AF488 and Gata6-AF647 DNA; assay: FCCS DNA bridging by NANOG; format: binding
Experimental: as §5
To further validate NANOG-dependent DNA bridging, Applicant resorted to fluorescence cross-correlation technique (FCCS). Binding of individual DNAs (differentially labeled with AF488 and AF647) to form a complex would result in correlated fluorescence signals.
FCCS experiments with various NANOG concentrations confirmed cross-correlation with as little as ˜30 nM WT NANOG (FIG. 6F). The increase in cross-correlated particles coincided with a decrease in molecular complex diffusion coefficient (bright lower line, FIG. 6F). Without being bound by theory, the decrease in cross-correlated particles at high NANOG concentrations may reflect competition for DNA with excess NANOG.

Substance | cross-correlation (DNA bridging) ([1]; 0.9 μM peptides) | lowest peptide concentration giving cross-correlation ([1]; FCCS titration) [µM] | Kd ([2]; fEMSA, read-out: dsDNA affinity (50% free DNA)) [nM] | cooperativity n (GATA6 dsDNA) | binding constant Ka (GATA6 dsDNA; n=3) [nM] | peptide concentration giving completely bound peptide:nucleic acid complexes [3] [nM] | peptide concentration giving visible precipitates of fluorescent proteins [4] [mg/mL] | aggregation without DNA (DNA; 0.2 mg/mL peptide) | potency in driving DNA:peptide LLPS (DNA; turbidity Abs350 nm>0.07 = LLPS positive) | proximity of separate DNAs [5] [Å] | Kd ([2]; full-length NANOG, for comparison, read-out: dsDNA affinity) [nM] | cross-correlation of differentially labeled DNAs [6] | lowest concentration giving cross-correlation [6] [nM]
WSNQTWNNSTWSNQTQNIQSWSNHSRRRKK [1-4wRK] | small degree of cross-correlation | 1 | ~1000 | 3.3±1.2 | 340 ± 110 | 60 to 250 | ~0.3 | aggregates even without DNA | more effective than TAT at higher concentrations of DNA |  |  |  | 
NANOG WT |  |  |  |  |  |  |  |  |  | ≤ 70 | 30 to 60 | significant cross-correlation | ~30
